Laboratory results reported in patent US10851069B2, “Compositions of crystallized hydrophobic compounds and methods of making and using same” (Massachusetts Institute of Technology, priority 2016, dated 2020).

What was measured:
[1] = Drug extraction (HPLC) of retrieved capsules, remaining loaded drug; type: in vivo, C57BL/6 mice; details: crystalline, co-encapsulated with islets, after 460 days compared to 6 months (180 days)
Protocol: Calibration curves were obtained on an Agilent LC 1100 Series (Agilent Technologies, CA, USA) equipped with binary pump ([…] Å), auto-sampler (G1313 Å), degasser and photodiode detector (DAD, […] Å). Chemstation was used for system control, data processing and data acquisition for LC. Chromatographic separation was achieved by an analytical Waters Atlantis T3 C18 column (5 μm, 4.6×250 mm). The temperature of column and auto-sampler were kept at 20° C. Stock solution of GW2580 was prepared in dimethyl sulfoxide (DMSO) at a target concentration of 10 mg/ml and appropriate dilutions were made in DMSO to prepare standards (0.25-2500 μg/ml) for calibration curve of GW2580. 10 μl of standard solution was injected and the analytes were eluted by gradient mode using (A) acetonitrile and (B) 0.1% formic acid in water at a constant flow rate of 1 ml/min. The gradient conditions of mobile phase were as follows: 0 min 10% A, 10 min 95% A, 14 min 95% A, 16 min 10% A, 20 min 10% A. Stock solution of curcumin was prepared in dimethyl sulfoxide (DMSO) at a target concentration of 10 mg/ml and appropriate dilutions were made in DMSO to prepare standards (0.05-500 μg/ml) for calibration curve of curcumin. 10 μl of standard solution was injected and the analytes were eluted by gradient mode using (A) acetonitrile and (B) 0.1% formic acid in water at a constant flow rate of 1 ml/min. […]

[2] = test system: STZ-induced diabetic C57BL/6 mice; assay: Blood glucose monitoring after transplantation of encapsulated rat islets with or without drug; type: in vivo
Protocol: Immediately prior to encapsulation, the cultured islets were centrifuged at 1,400 rpm for 1 minute and washed with Ca-free Krebs-Henseleit (KH) Buffer (4.7 mM KCl, 25 mM HEPES, 1.2 mM KH2PO4, 1.2 mM MgSO4×7H2O, 135 mM NaCl, pH≈7.4, ≈290 mOsm). After washing, islets were centrifuged again and all supernatant was aspirated. The islet pellet was then re-suspended in a 2.0% solution of SLG20 alginate dissolved in 0.9% NaCl solution at an islet density of 1,000 islets per 1.0 ml alginate solution. Spheres were crosslinked using a BaCl2 gelling solution and their sizes were controlled using similar procedures as the empty spheres (described above). Immediately after crosslinking, the encapsulated islets were washed 4 times with HEPES buffer and 2 times with RPMI Medium 1640 with 10% HIFBS and cultured overnight at 37° C. for transplantation. As the islets had variable sizes (50-400 μm) and there was an inevitable loss of islets during the encapsulation process, the total number of encapsulated islets were recounted and converted into islet equivalents (IE, normalized to 150 μm size) based on a previously published method (Ricordi, C. et al. Islet isolation assessment in man and large animals. Acta 18 Diabetol. Lat. 27, 185195 (1990)) prior to transplantation.
All animal protocols were approved by the MIT Committee on Animal Care, and all surgical procedures and post-operative care was supervised by MIT Division of Comparative Medicine veterinary staff. Immune-competent male non-diabetic or STZ-induced diabetic C57BL/6 mice (Jackson Laboratory, Bar Harbor, Me.) were anesthetized with 3% isoflurane in oxygen and had their abdomens shaved and sterilized using betadine and isopropanol. Preoperatively, all mice also received a 0.05 mg/kg dose of buprenorphine subcutaneously as a pre-surgical analgesic, along with 0.3 mL of 0.9% saline subcutaneously to prevent dehydration. […]
Blood glucose levels were monitored three times a week following transplantation of islet-containing alginate capsules. […]

COc1ccc(COc2ccc(Cc3cnc(N)nc3N)cc2OC)cc1 [GW2580, 5-[[3-Methoxy-4-[(4-methoxyphenyl)methoxy]phenyl]methyl]-2,4-pyrimidinediamine]
drug remaining in retrieved capsules [1]: significantly larger amount
improvement of normoglycemia duration over controls ([2]; amorphous): 2 fold
improvement of normoglycemia duration over controls ([2]; crystalline): approximately 13 fold
duration of maintained normoglycemia ([2]; crystalline, 0.5 mm alginate microspheres): over 1.25 years
